# From US8192962B2, “Processes for detecting toxic substances” (Daikin Industries, Ltd., priority 2001, dated 2012)
# System: Metabolism protein genes
# Assay: DNA chip mRNA expression in yeast, metabolism protein genes (Table 7)
# Assay type: cell-based, Saccharomyces cerevisiae S288C
# Procedure, shortened: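 Value is the scanned fluorescence intensity ratio of exposed versus chemical-free cells. Log-phase S288C yeast in YPD at 25° C. received one toxic substance for two hours, dosed to slow growth without killing; Cy3/Cy5-labeled cDNA from oligo-dT-purified mRNA was hybridized to a whole-genome chip at 65° C.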
smiles,measurement,setting,value
"[Cl][Hg][Cl] [(3), HgCl2]",The level of expressed mRNA in the presence of chemical substance/The level of expressed mRNA in the absence of chemical substance,yeast gene YJR155W,1.4
same,The level of expressed mRNA in the presence of chemical substance/The level of expressed mRNA in the absence of chemical substance,yeast gene YKL035W,4.8
same,level of expressed mRNA in the presence/in the absence of chemical substance,yeast gene YKL060C,2.5
same,The level of expressed mRNA in the presence of chemical substance/The level of expressed mRNA in the absence of chemical substance,yeast gene YKL091C,1.4
same,The level of expressed mRNA in the presence of chemical substance/The level of expressed mRNA in the absence of chemical substance,yeast gene YKL104C,1.6
same,level of expressed mRNA in the presence/in the absence of chemical substance,yeast gene YKL148C,3.7
same,The level of expressed mRNA in the presence of chemical substance/The level of expressed mRNA in the absence of chemical substance,yeast gene YKL152C,1.9
same,level of expressed mRNA in the presence/in the absence of chemical substance,yeast gene YKL157W,2.3
same,The level of expressed mRNA in the presence of chemical substance/The level of expressed mRNA in the absence of chemical substance,yeast gene YKL213C,1.0
same,The level of expressed mRNA in the presence of chemical substance/The level of expressed mRNA in the absence of chemical substance,yeast gene YKL215C,1.3
same,level of expressed mRNA in the presence/in the absence of chemical substance,yeast gene YKR034W,1.1
same,The level of expressed mRNA in the presence of chemical substance/The level of expressed mRNA in the absence of chemical substance,yeast gene YLL058W,1.4
same,level of expressed mRNA in the presence/in the absence of chemical substance,yeast gene YLR006C,0.9
same,level of expressed mRNA in the presence/in the absence of chemical substance,yeast gene YLR044C,2.2
same,level of expressed mRNA in the presence/in the absence of chemical substance,yeast gene YLR056W,2.5
same,level of expressed mRNA in the presence/in the absence of chemical substance,yeast gene YLR058C,5.5
same,level of expressed mRNA in the presence/in the absence of chemical substance,yeast gene YLR081W,2.8
same,level of expressed mRNA in the presence/in the absence of chemical substance,yeast gene YLR089C,2.1
same,The level of expressed mRNA in the presence of chemical substance/The level of expressed mRNA in the absence of chemical substance,yeast gene YLR180W,2.4
same,The level of expressed mRNA in the presence of chemical substance/The level of expressed mRNA in the absence of chemical substance,yeast gene YLR273C,1.3
same,level of expressed mRNA in the presence/in the absence of chemical substance,yeast gene YLR284C,3.8
same,The level of expressed mRNA in the presence of chemical substance/The level of expressed mRNA in the absence of chemical substance,yeast gene YLR299W,1.5
same,The level of expressed mRNA in the presence of chemical substance/The level of expressed mRNA in the absence of chemical substance,yeast gene YLR300W,0.8
same,level of expressed mRNA in the presence/in the absence of chemical substance,yeast gene YLR304C,5.0
same,The level of expressed mRNA in the presence of chemical substance/The level of expressed mRNA in the absence of chemical substance,yeast gene YLR307W,0.7
same,The level of expressed mRNA in the presence of chemical substance/The level of expressed mRNA in the absence of chemical substance,yeast gene YLR348C,1.2
same,level of expressed mRNA in the presence/in the absence of chemical substance,yeast gene YLR354C,2.3
same,level of expressed mRNA in the presence/in the absence of chemical substance,yeast gene YLR372W,1.7
same,level of expressed mRNA in the presence/in the absence of chemical substance,yeast gene YML022W,2.0
same,The level of expressed mRNA in the presence of chemical substance/The level of expressed mRNA in the absence of chemical substance,yeast gene YML054C,1.3
same,The level of expressed mRNA in the presence of chemical substance/The level of expressed mRNA in the absence of chemical substance,yeast gene YML070W,2.5
same,The level of expressed mRNA in the presence of chemical substance/The level of expressed mRNA in the absence of chemical substance,yeast gene YML100W,10.6
same,The level of expressed mRNA in the presence of chemical substance/The level of expressed mRNA in the absence of chemical substance,yeast gene YMR008C,1.4
same,level of expressed mRNA in the presence/in the absence of chemical substance,yeast gene YMR011W,9.4
same,level of expressed mRNA in the presence/in the absence of chemical substance,yeast gene YMR015C,1.9
same,The level of expressed mRNA in the presence of chemical substance/The level of expressed mRNA in the absence of chemical substance,yeast gene YMR020W,0.9
same,level of expressed mRNA in the presence/in the absence of chemical substance,yeast gene YMR083W,2.6
same,The level of expressed mRNA in the presence of chemical substance/The level of expressed mRNA in the absence of chemical substance,yeast gene YMR105C,5.0
same,The level of expressed mRNA in the presence of chemical substance/The level of expressed mRNA in the absence of chemical substance,yeast gene YMR189W,1.9
same,level of expressed mRNA in the presence/in the absence of chemical substance,yeast gene YMR205C,2.3
same,level of expressed mRNA in the presence/in the absence of chemical substance,yeast gene YMR261C,3.6
same,The level of expressed mRNA in the presence of chemical substance/The level of expressed mRNA in the absence of chemical substance,yeast gene YMR271C,1.3
same,The level of expressed mRNA in the presence of chemical substance/The level of expressed mRNA in the absence of chemical substance,yeast gene YMR296C,1.2
same,level of expressed mRNA in the presence/in the absence of chemical substance,yeast gene YMR323W,2.9
same,The level of expressed mRNA in the presence of chemical substance/The level of expressed mRNA in the absence of chemical substance,yeast gene YNL012W,1.8
same,level of expressed mRNA in the presence/in the absence of chemical substance,yeast gene YNL025C,1.4
same,The level of expressed mRNA in the presence of chemical substance/The level of expressed mRNA in the absence of chemical substance,yeast gene YNL045W,2.0
same,The level of expressed mRNA in the presence of chemical substance/The level of expressed mRNA in the absence of chemical substance,yeast gene YNL104C,3.0
same,The level of expressed mRNA in the presence of chemical substance/The level of expressed mRNA in the absence of chemical substance,yeast gene YNL106C,0.8
same,The level of expressed mRNA in the presence of chemical substance/The level of expressed mRNA in the absence of chemical substance,yeast gene YNL169C,1.4
same,level of expressed mRNA in the presence/in the absence of chemical substance,yeast gene YNL192W,1.5
same,The level of expressed mRNA in the presence of chemical substance/The level of expressed mRNA in the absence of chemical substance,yeast gene YNL231C,0.8
same,The level of expressed mRNA in the presence of chemical substance/The level of expressed mRNA in the absence of chemical substance,yeast gene YNL322C,1.9
same,The level of expressed mRNA in the presence of chemical substance/The level of expressed mRNA in the absence of chemical substance,yeast gene YNL331C,1.3
same,The level of expressed mRNA in the presence of chemical substance/The level of expressed mRNA in the absence of chemical substance,yeast gene YNL332W,1.1
same,The level of expressed mRNA in the presence of chemical substance/The level of expressed mRNA in the absence of chemical substance,yeast gene YNR019W,1.6
same,The level of expressed mRNA in the presence of chemical substance/The level of expressed mRNA in the absence of chemical substance,yeast gene YNR033W,0.8
same,The level of expressed mRNA in the presence of chemical substance/The level of expressed mRNA in the absence of chemical substance,yeast gene YNR059W,0.2
same,The level of expressed mRNA in the presence of chemical substance/The level of expressed mRNA in the absence of chemical substance,yeast gene YOL058W,1.7
same,level of expressed mRNA in the presence/in the absence of chemical substance,yeast gene YOL086C,2.2
same,level of expressed mRNA in the presence/in the absence of chemical substance,yeast gene YOL108C,0.4
same,level of expressed mRNA in the presence/in the absence of chemical substance,yeast gene YOL116W,0.9
same,The level of expressed mRNA in the presence of chemical substance/The level of expressed mRNA in the absence of chemical substance,yeast gene YOL126C,1.0
same,The level of expressed mRNA in the presence of chemical substance/The level of expressed mRNA in the absence of chemical substance,yeast gene YOL153C,2.1
same,level of expressed mRNA in the presence/in the absence of chemical substance,yeast gene YOL156W,2.5
same,The level of expressed mRNA in the presence of chemical substance/The level of expressed mRNA in the absence of chemical substance,yeast gene YOL165C,1.8
same,level of expressed mRNA in the presence/in the absence of chemical substance,yeast gene YOR002W,1.9
same,level of expressed mRNA in the presence/in the absence of chemical substance,yeast gene YOR085W,1.9
same,The level of expressed mRNA in the presence of chemical substance/The level of expressed mRNA in the absence of chemical substance,yeast gene YOR099W,2.1
same,level of expressed mRNA in the presence/in the absence of chemical substance,yeast gene YOR103C,1.3
same,level of expressed mRNA in the presence/in the absence of chemical substance,yeast gene YOR108W,2.3
same,level of expressed mRNA in the presence/in the absence of chemical substance,yeast gene YOR128C,2.1
same,The level of expressed mRNA in the presence of chemical substance/The level of expressed mRNA in the absence of chemical substance,yeast gene YOR130C,1.4
same,level of expressed mRNA in the presence/in the absence of chemical substance,yeast gene YOR142W,3.4
same,level of expressed mRNA in the presence/in the absence of chemical substance,yeast gene YOR176W,2.7
same,level of expressed mRNA in the presence/in the absence of chemical substance,yeast gene YOR178C,4.8
same,level of expressed mRNA in the presence/in the absence of chemical substance,yeast gene YOR251C,1.3
same,The level of expressed mRNA in the presence of chemical substance/The level of expressed mRNA in the absence of chemical substance,yeast gene YOR336W,0.7
same,The level of expressed mRNA in the presence of chemical substance/The level of expressed mRNA in the absence of chemical substance,yeast gene YOR347C,2.1
same,level of expressed mRNA in the presence/in the absence of chemical substance,yeast gene YOR348C,1.2
same,The level of expressed mRNA in the presence of chemical substance/The level of expressed mRNA in the absence of chemical substance,yeast gene YPL017C,0.8
same,level of expressed mRNA in the presence/in the absence of chemical substance,yeast gene YPL028W,2.6
same,level of expressed mRNA in the presence/in the absence of chemical substance,yeast gene YPL057C,3.2
same,level of expressed mRNA in the presence/in the absence of chemical substance,yeast gene YPL135W,2.5
same,level of expressed mRNA in the presence/in the absence of chemical substance,yeast gene YPL148C,0.9
same,The level of expressed mRNA in the presence of chemical substance/The level of expressed mRNA in the absence of chemical substance,yeast gene YPR026W,5.0
same,level of expressed mRNA in the presence/in the absence of chemical substance,yeast gene YPR113W,3.7
same,level of expressed mRNA in the presence/in the absence of chemical substance,yeast gene YPR165W,1.6
same,The level of expressed mRNA in the presence of chemical substance/The level of expressed mRNA in the absence of chemical substance,yeast gene YPR167C,1.9
same,level of expressed mRNA in the presence/in the absence of chemical substance,yeast gene YPR183W,3.5
